Laboratory results taken from the supplement of paper PMC11061612.

Assays:
[1] = tested on: JVM-3 (B-Cell Non-Hodgkin's Lymphoma); assay: combination Emax (second highest fraction inhibited in the dose matrix, 72 h); higher = more inhibition; extreme values may be limits of the assay
In short: (§1)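 After 24 hours at 37°C and 5% CO2 in 1536-well plates, cells in DMEM/F12 or RPMI plus 10% FBS received two-drug dose matrices for 72 hours. Viability came from CellTiter-Glo 2.0 luminescence and was scaled as inhibition, anchored at 0 by vehicle wells and at 1 by blank wells. Combination Emax is taken as the second-highest inhibition in the matrix, and Bliss excess as the observed combination effect less EA + EB − EA·EB, with EA and EB the single-agent effects.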

[2] = tested on: KMOE-2 (Acute Myeloid Leukemia); assay: Bliss excess, mean over the matrix (fraction); higher = more synergy
In short: as §1

[3] = tested on: SCC-15 (Oral Cavity Carcinoma); assay: as above
In short: as §1

[4] = tested on: JVM-3 (B-Cell Non-Hodgkin's Lymphoma); assay: as above
In short: as §1
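Wherever Bliss excess, mean over the matrix is given: after 72 h of two-drug dosing.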

| SMILES | combination Emax [1] | Bliss excess [2] | Bliss excess [3] | Bliss excess [4] |
| --- | --- | --- | --- | --- |
| CC(=O)Nc1cccc(-n2c(=O)n(C3CC3)c(=O)c3c(Nc4ccc(I)cc4F)n(C)c(=O)c(C)c32)c1 [Trametinib] + Cc1nc(-c2cn3c(n2)-c2ccc(-c4cnn(C(C)(C)C(N)=O)c4)cc2OCC3)n(C(C)C)n1 [Taselisib] (first compound max 1 µM, 7x7, partner max 10 µM) | 0.734 | 0.066 | 0.171 | -0.006 |
| CC1(C)CCC(CN2CCN(c3ccc(C(=O)NS(=O)(=O)c4ccc(NCC5CCOCC5)c([N+](=O)[O-])c4)c(Oc4cnc5[nH]ccc5c4)c3)CC2)=C(c2ccc(Cl)cc2)C1 [Venetoclax] + CN(C)CCCOc1ccc(-c2ccc3ncc4c(c3c2)n(C2CCOCC2)c(=O)n4C)cn1 [AZD0156] (first compound max 1 µM, 7x7, partner max 1 µM) | 0.673 | -0.0291 | -0.0146 | 0.0085 |
| Cc1c2c(nn1C)CSCc1cc(n(C)n1)CSc1cc(c3ccccc3c1)OCCCc1c(C(=O)O)n(C)c3c-2c(Cl)ccc13 [AZD5991] + C=CCn1c(=O)c2cnc(Nc3ccc(N4CCN(C)CC4)cc3)nc2n1-c1cccc(C(C)(C)O)n1 [AZD1775] (first compound max 1 µM, partner max 1 µM) | 0.92 | 0.0087 | -0.0365 | -0.0884 |
| Cc1c2c(nn1C)CSCc1cc(n(C)n1)CSc1cc(c3ccccc3c1)OCCCc1c(C(=O)O)n(C)c3c-2c(Cl)ccc13 [AZD5991] + Cn1cnc2c(F)c(Nc3ccc(Br)cc3Cl)c(C(=O)NOCCO)cc21 [Selumetinib] (first compound max 1 µM, 7x7, partner max 3 µM) | 0.472 | -0.0227 | 0.0241 | -0.0296 |
| CCc1c2c(nc3ccc(O)cc13)-c1cc3c(c(=O)n1C2)COC(=O)[C@]3(O)CC [SN-38] + CN(C)CCCOc1ccc(-c2ccc3ncc4c(c3c2)n(C2CCOCC2)c(=O)n4C)cn1 [AZD0156] (first compound max 0.3 µM, 7x7, partner max 1 µM) | 0.982 | -0.0089 | 0.0092 | -0.0309 |
| CCN(CCO)CCCOc1ccc2c(Nc3cc(CC(=O)Nc4cccc(F)c4)[nH]n3)ncnc2c1 [AZD2811] + C=CCn1c(=O)c2cnc(Nc3ccc(N4CCN(C)CC4)cc3)nc2n1-c1cccc(C(C)(C)O)n1 [AZD1775] (first compound max 1 µM, partner max 1 µM) | 0.775 | -0.0181 | 0.0237 | 0.0365 |
| Cc1c2c(nn1C)CSCc1cc(n(C)n1)CSc1cc(c3ccccc3c1)OCCCc1c(C(=O)O)n(C)c3c-2c(Cl)ccc13 [AZD5991] + C1CN(CCC1(C(=O)N[C@@H](CCO)C2=CC=C(C=C2)Cl)N)C3=NC=NC4=C3C=CN4 [Capivasertib] (first compound max 1 µM, 7x7, partner max 3 µM) | 0.544 | -0.002 | 0.0106 | -0.0363 |
| CN(CCO)CC[C@H](CSc1ccccc1)Nc1ccc(S(=O)(=O)NC(=O)c2ccc(N3CCC([C@@H](O)c4ccccc4-c4ccc(Cl)cc4)CC3)cc2)cc1S(=O)(=O)C(F)(F)F [AZD4320] + CN(C)CCCOc1ccc(-c2ccc3ncc4c(c3c2)n(C2CCOCC2)c(=O)n4C)cn1 [AZD0156] (first compound max 1 µM, 7x7, partner max 1 µM) | 0.92 | 0.0446 | -0.0538 | 0.0006 |
| CCN(CCO)CCCOc1ccc2c(Nc3cc(CC(=O)Nc4cccc(F)c4)[nH]n3)ncnc2c1 [AZD2811] + O=C(c1cc(Cc2n[nH]c(=O)c3ccccc23)ccc1F)N1CCN(C(=O)C2CC2)CC1 [Olaparib] (first compound max 1 µM, 7x7, partner max 10 µM) | 0.45 | 0.0545 | -0.0376 | -0.0119 |
| COc1cccc2c1C(=O)c1c(O)c3c(c(O)c1C2=O)C[C@@](O)(C(=O)CO)C[C@@H]3O[C@H]1C[C@H](N)[C@H](O)[C@H](C)O1 [Doxorubicin] + Cc1cc2ncnn2cc1Nc1ncc2c(n1)n(C1CCOCC1)c(=O)n2C [AZD7648] (first compound max 1 µM, 7x7, partner max 10 µM) | 0.978 | 0.0867 | 0.0028 | 0.0661 |
| COc1cccc(OCCCN)c1-c1cc(Nc2cnc(C#N)cn2)n[nH]1 [Prexasertib] + CN(C)CCCOc1ccc(-c2ccc3ncc4c(c3c2)n(C2CCOCC2)c(=O)n4C)cn1 [AZD0156] (first compound max 1 µM, 7x7, partner max 1 µM) | 0.985 | -0.0363 | -0.0333 | -0.0097 |
| Cc1c2c(nn1C)CSCc1cc(n(C)n1)CSc1cc(c3ccccc3c1)OCCCc1c(C(=O)O)n(C)c3c-2c(Cl)ccc13 [AZD5991] + CN(C)CCCOc1ccc(-c2ccc3ncc4c(c3c2)n(C2CCOCC2)c(=O)n4C)cn1 [AZD0156] (first compound max 1 µM, 7x7, partner max 1 µM) | 0.509 | -0.0526 | -0.0048 | -0.0613 |
| COc1cccc(OCCCN)c1-c1cc(Nc2cnc(C#N)cn2)n[nH]1 [Prexasertib] + Cc1cc2ncnn2cc1Nc1ncc2c(n1)n(C1CCOCC1)c(=O)n2C [AZD7648] (first compound max 1 µM, 7x7, partner max 10 µM) | 0.981 | 0.0172 | -0.0065 | -0.027 |
| Cc1c2c(nn1C)CSCc1cc(n(C)n1)CSc1cc(c3ccccc3c1)OCCCc1c(C(=O)O)n(C)c3c-2c(Cl)ccc13 [AZD5991] + CC1(C)CCC(CN2CCN(c3ccc(C(=O)NS(=O)(=O)c4ccc(NCC5CCOCC5)c([N+](=O)[O-])c4)c(Oc4cnc5[nH]ccc5c4)c3)CC2)=C(c2ccc(Cl)cc2)C1 [Venetoclax] (first compound max 1 µM, 7x7, partner max 1 µM) | 0.764 | 0.0141 | -0.0341 | 0.146 |
| CC1(C)CCC(CN2CCN(c3ccc(C(=O)NS(=O)(=O)c4ccc(NCC5CCOCC5)c([N+](=O)[O-])c4)c(Oc4cnc5[nH]ccc5c4)c3)CC2)=C(c2ccc(Cl)cc2)C1 [Venetoclax] + Cn1cnc2c(F)c(Nc3ccc(Br)cc3Cl)c(C(=O)NOCCO)cc21 [Selumetinib] (first compound max 1 µM, 7x7, partner max 3 µM) | 0.486 | -0.0168 | -0.0428 | -0.0583 |
| CC1(C)CCC(CN2CCN(c3ccc(C(=O)NS(=O)(=O)c4ccc(NCC5CCOCC5)c([N+](=O)[O-])c4)c(Oc4cnc5[nH]ccc5c4)c3)CC2)=C(c2ccc(Cl)cc2)C1 [Venetoclax] + CCN(CCO)CCCOc1ccc2c(Nc3cc(CC(=O)Nc4cccc(F)c4)[nH]n3)ncnc2c1 [AZD2811] (first compound max 1 µM, 7x7, partner max 1 µM) | 0.653 | -0.0506 | -0.0051 | 0.162 |
| C=CCn1c(=O)c2cnc(Nc3ccc(N4CCN(C)CC4)cc3)nc2n1-c1cccc(C(C)(C)O)n1 [AZD1775] + C1CN(CCC1(C(=O)N[C@@H](CCO)C2=CC=C(C=C2)Cl)N)C3=NC=NC4=C3C=CN4 [Capivasertib] (first compound max 3 µM, partner max 3 µM) | 0.971 | 0.0273 | -0.0319 | 0.0012 |
| C=CCn1c(=O)c2cnc(Nc3ccc(N4CCN(C)CC4)cc3)nc2n1-c1cccc(C(C)(C)O)n1 [AZD1775] + C[C@@H]1COCCN1C2=NC(=NC(=C2)C3(CC3)[S@](=N)(=O)C)C4=C5C=CNC5=NC=C4 [AZD6738] (first compound max 1 µM, partner max 10 µM) | 0.876 | 0.0308 | -0.0216 | -0.0178 |
| C=CCn1c(=O)c2cnc(Nc3ccc(N4CCN(C)CC4)cc3)nc2n1-c1cccc(C(C)(C)O)n1 [AZD1775] + O=C(c1cc(Cc2n[nH]c(=O)c3ccccc23)ccc1F)N1CCN(C(=O)C2CC2)CC1 [Olaparib] (first compound max 1 µM, partner max 10 µM) | 0.895 | -0.0248 | -0.043 | -0.109 |
| CC1(C)CCC(CN2CCN(c3ccc(C(=O)NS(=O)(=O)c4ccc(NCC5CCOCC5)c([N+](=O)[O-])c4)c(Oc4cnc5[nH]ccc5c4)c3)CC2)=C(c2ccc(Cl)cc2)C1 [Venetoclax] + COc1cc(Nc2ncc3c(n2)-c2ccc(Cl)cc2C(c2c(F)cccc2OC)=NC3)ccc1C(=O)O [Alisertib] (first compound max 1 µM, 7x7, partner max 10 µM) | 0.823 | 0.0304 | -0.0257 | 0.215 |
| Cc1c2c(nn1C)CSCc1cc(n(C)n1)CSc1cc(c3ccccc3c1)OCCCc1c(C(=O)O)n(C)c3c-2c(Cl)ccc13 [AZD5991] + CCN(CCO)CCCOc1ccc2c(Nc3cc(CC(=O)Nc4cccc(F)c4)[nH]n3)ncnc2c1 [AZD2811] (first compound max 1 µM, 7x7, partner max 1 µM) | 0.486 | 0.0471 | -0.0061 | 0.0892 |
| COc1cccc(OCCCN)c1-c1cc(Nc2cnc(C#N)cn2)n[nH]1 [Prexasertib] + C[C@@H]1COCCN1C2=NC(=NC(=C2)C3(CC3)[S@](=N)(=O)C)C4=C5C=CNC5=NC=C4 [AZD6738] (first compound max 1 µM, 7x7, partner max 10 µM) | 0.966 | -0.0043 | -0.0316 | -0.0351 |
| CCN(CCO)CCCOc1ccc2c(Nc3cc(CC(=O)Nc4cccc(F)c4)[nH]n3)ncnc2c1 [AZD2811] + C[C@@H]1COCCN1C2=NC(=NC(=C2)C3(CC3)[S@](=N)(=O)C)C4=C5C=CNC5=NC=C4 [AZD6738] (first compound max 1 µM, 7x7, partner max 10 µM) | 0.723 | -0.032 | -0.0478 | -0.0101 |
| CN(C)CCCOc1ccc(-c2ccc3ncc4c(c3c2)n(C2CCOCC2)c(=O)n4C)cn1 [AZD0156] + CCN(CCO)CCCOc1ccc2c(Nc3cc(CC(=O)Nc4cccc(F)c4)[nH]n3)ncnc2c1 [AZD2811] (first compound max 1 µM, 7x7, partner max 1 µM) | 0.543 | 0.0096 | -0.0458 | -0.0252 |
| CN(C)CCCOc1ccc(-c2ccc3ncc4c(c3c2)n(C2CCOCC2)c(=O)n4C)cn1 [AZD0156] + C=CCn1c(=O)c2cnc(Nc3ccc(N4CCN(C)CC4)cc3)nc2n1-c1cccc(C(C)(C)O)n1 [AZD1775] (first compound max 1 µM, partner max 1 µM) | 0.895 | -0.039 | -0.0799 | -0.0347 |
| COc1cccc(OCCCN)c1-c1cc(Nc2cnc(C#N)cn2)n[nH]1 [Prexasertib] + C=CCn1c(=O)c2cnc(Nc3ccc(N4CCN(C)CC4)cc3)nc2n1-c1cccc(C(C)(C)O)n1 [AZD1775] (first compound max 1 µM, partner max 1 µM) | 0.973 | 0.0637 | 0.0227 | 0.0369 |
